What is called EC50 is the midpoint of the concentration-response curve. Broadly, the AC50 is the concentration giving half of the maximal activity seen. By IC50 is commonly meant the point on the concentration scale where inhibition reaches its midpoint.

Active and inactive are the calls of the source.

Series [1] in a line: Luminescence Cell-Based Dose Response HTS to Identify Activators of Luciferase Translation or Activity in H4 […] Cells. [Related pubchem assays: 1829 (Project Summary), 1814 (Primary HTS)]. The format is functional.
Series [2] can be described thus: Luminescence Cell-Based Dose Confirmation HTS to Identify Activators of 5'UTR Stem-Loop Driven Alpha-Synuclein mRNA Translation in H4 Neuroglioblastoma Cells. [Related pubchem assays: 1829 (Project Summary), 1814 (Primary HTS)]. It counts as functional.
Another series deals with H4. The series can be described thus: Luminescence Cell-Based Dose Response HTS to Identify Activators of 5'UTR Stem-Loop Driven Prion Protein mRNA Translation in H4 Neuroglioblastoma Cells. [Related pubchem assays: 1829 (Project Summary), 1814 (Primary HTS)]. It counts as functional. Conditions: Homo sapiens.
Series [3] in a line: intracellular Trypanosoma cruzi inhibitors in host cells – cell-based, plate reader, cherry-pick samples, set 3, dose response (AID 651818).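 Also: compounds incubated with infected cells for about four days.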 It counts as functional.
A further series concerns the target Cytochrome P450 2C9 (Homo sapiens, UniProt P11712).
For the next series, the target named is Cytochrome P450 2C19 (Homo sapiens, UniProt P33261). Kind of series: Cytochrome panel assay with activity outcomes. Panel member name: p450-cyp2c19 Compounds with AC50 equal or less than 10 uM are considered active. It counts as functional. The note with it: read-out: AC50.
Chain of Cytochrome P450 2C19 (P33261 whole entry): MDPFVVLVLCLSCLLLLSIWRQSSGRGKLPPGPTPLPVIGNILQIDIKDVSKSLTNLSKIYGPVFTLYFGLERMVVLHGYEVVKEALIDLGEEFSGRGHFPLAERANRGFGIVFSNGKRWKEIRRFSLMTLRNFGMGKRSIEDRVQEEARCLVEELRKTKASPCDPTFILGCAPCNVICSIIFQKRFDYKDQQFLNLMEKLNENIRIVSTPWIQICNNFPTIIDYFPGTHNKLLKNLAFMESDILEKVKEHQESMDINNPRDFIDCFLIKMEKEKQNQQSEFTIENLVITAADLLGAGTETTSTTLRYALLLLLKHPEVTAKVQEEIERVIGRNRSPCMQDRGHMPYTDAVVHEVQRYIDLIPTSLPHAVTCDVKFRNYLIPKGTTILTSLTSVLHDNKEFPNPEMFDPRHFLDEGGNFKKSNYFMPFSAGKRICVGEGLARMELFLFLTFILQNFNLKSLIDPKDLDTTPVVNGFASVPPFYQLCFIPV
Series [4] can be described thus: cells. It counts as functional, cell-based.
A short description of series [5]: cells. The format is functional, cell-based. This is another data set of the same source.
The target in the next series is Large T antigen (Simian virus 40, UniProt P03070). It counts as functional, Betapolyomavirus macacae.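 Also: Confirmatory-stage PubChem screen for compounds that inhibit SV40 T antigen.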
Chain of Large T antigen (P03070 whole entry): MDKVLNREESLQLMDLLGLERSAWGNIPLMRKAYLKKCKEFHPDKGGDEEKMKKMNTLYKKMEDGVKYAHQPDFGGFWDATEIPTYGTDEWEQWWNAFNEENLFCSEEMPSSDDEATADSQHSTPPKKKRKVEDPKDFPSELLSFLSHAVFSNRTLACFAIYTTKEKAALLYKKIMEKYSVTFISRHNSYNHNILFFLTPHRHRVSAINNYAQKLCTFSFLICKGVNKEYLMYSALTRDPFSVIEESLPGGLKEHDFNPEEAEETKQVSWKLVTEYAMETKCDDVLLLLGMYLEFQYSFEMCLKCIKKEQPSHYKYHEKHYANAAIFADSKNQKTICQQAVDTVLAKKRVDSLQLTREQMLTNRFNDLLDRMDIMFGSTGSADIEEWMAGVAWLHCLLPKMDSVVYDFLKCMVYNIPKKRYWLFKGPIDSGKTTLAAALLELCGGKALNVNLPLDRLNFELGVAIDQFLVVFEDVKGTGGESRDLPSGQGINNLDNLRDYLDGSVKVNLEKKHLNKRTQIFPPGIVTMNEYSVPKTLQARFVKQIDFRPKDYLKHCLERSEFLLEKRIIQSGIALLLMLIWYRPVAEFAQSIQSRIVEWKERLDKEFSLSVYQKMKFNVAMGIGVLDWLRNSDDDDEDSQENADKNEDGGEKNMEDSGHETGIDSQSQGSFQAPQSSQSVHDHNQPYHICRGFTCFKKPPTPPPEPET
For the next series, the target named is T1, Protein RecA (Mycobacterium tuberculosis, UniProt P9WHJ3).
T1 sequence (P9WHJ3 whole entry): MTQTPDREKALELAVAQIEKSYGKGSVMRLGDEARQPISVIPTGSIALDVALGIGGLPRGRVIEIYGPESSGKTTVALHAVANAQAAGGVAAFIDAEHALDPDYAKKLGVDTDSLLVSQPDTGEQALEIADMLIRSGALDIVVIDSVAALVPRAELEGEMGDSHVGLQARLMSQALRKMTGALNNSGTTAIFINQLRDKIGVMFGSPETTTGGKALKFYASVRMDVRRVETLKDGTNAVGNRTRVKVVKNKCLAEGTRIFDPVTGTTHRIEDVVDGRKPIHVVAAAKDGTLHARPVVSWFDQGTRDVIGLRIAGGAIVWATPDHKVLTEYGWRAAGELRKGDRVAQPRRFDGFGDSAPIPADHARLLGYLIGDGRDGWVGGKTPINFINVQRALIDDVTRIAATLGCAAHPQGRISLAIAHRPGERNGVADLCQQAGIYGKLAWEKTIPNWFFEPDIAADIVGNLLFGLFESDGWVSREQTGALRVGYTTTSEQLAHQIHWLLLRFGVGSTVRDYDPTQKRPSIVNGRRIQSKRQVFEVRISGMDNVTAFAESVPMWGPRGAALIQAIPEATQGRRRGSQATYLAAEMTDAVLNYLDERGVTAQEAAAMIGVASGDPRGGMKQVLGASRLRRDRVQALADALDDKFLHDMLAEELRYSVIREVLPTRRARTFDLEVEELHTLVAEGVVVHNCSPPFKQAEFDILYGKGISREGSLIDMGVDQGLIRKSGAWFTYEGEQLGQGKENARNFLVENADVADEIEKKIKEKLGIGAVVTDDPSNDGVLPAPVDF
The series can be described thus: Fluorescence Cell-Free Homogeneous Dose Retest to Identify Inhibitors of RecA-Intein Splicing Activity. [Related pubchem assays (depositor defined):AID2097, AID2223, AID489010, AID492950]. It counts as functional.

Series [6] deals with T2, Replicative DNA helicase DnaB (Mycobacterium tuberculosis, UniProt P9WMR3).
T2 sequence (P9WMR3 whole entry): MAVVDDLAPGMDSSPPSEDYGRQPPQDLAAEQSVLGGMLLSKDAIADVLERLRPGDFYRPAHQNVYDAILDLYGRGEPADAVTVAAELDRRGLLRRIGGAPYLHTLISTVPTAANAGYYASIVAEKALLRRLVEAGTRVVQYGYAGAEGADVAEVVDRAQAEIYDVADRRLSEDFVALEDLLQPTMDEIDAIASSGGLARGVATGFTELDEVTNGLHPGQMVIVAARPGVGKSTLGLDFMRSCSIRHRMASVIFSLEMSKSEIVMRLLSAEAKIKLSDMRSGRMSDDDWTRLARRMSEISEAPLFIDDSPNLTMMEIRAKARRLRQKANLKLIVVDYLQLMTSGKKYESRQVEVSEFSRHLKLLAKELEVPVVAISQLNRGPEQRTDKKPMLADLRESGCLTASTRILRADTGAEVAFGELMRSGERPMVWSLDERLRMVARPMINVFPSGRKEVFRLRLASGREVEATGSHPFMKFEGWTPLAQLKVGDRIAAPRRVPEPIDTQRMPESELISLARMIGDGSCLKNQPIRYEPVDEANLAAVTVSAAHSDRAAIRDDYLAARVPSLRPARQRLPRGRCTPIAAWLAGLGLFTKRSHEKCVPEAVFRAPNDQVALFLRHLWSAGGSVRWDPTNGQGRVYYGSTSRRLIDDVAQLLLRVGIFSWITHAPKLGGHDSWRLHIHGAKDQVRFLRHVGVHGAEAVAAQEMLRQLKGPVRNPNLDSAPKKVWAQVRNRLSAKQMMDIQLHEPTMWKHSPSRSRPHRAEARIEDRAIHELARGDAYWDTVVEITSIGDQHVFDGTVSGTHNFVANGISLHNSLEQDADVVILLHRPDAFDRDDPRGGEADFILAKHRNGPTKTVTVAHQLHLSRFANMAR
Kind of series: DnaB intein splicing inhibitors, dose response, biochemical, cell-free fluorescence (AID 449749). It counts as functional.

The target of series [7] is T3, Cytochrome P450 3A4 (Homo sapiens, UniProt P08684). The note with it: Potency.
T3 sequence (P08684 whole entry): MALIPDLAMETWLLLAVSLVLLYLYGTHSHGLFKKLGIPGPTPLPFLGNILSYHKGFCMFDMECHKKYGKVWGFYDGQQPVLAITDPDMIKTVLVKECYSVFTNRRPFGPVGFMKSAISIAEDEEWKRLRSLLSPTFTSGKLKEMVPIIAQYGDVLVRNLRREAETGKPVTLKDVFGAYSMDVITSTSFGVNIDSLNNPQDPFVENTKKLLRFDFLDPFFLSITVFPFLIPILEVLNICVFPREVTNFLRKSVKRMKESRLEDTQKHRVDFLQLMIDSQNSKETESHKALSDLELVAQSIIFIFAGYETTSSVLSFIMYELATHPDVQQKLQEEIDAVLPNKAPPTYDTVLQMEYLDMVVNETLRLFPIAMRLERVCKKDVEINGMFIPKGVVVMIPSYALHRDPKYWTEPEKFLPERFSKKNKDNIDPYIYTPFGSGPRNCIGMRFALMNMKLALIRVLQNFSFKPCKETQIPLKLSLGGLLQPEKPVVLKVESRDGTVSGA
The target in series [8] is T4, Rac GTPase-activating protein 1 (Homo sapiens, UniProt Q9H0H5).
T4 sequence (Q9H0H5 whole entry): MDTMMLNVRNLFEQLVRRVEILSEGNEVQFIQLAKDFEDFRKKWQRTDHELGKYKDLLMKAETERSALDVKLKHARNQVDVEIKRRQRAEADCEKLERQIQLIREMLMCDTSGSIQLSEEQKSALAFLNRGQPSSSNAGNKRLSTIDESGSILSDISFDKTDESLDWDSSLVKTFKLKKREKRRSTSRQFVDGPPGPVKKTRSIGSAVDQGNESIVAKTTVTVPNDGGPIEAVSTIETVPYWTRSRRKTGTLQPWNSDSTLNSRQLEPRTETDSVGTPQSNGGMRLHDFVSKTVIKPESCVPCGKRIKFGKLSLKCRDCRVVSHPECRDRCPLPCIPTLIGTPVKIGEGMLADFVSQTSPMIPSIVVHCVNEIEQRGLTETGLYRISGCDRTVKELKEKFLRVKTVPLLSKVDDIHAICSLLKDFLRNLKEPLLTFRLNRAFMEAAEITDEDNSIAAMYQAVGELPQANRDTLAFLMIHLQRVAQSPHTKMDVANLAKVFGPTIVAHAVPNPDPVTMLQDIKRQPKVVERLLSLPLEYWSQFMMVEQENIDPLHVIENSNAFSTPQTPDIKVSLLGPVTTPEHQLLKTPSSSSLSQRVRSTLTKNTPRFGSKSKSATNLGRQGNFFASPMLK
Kind of series: MgcRacGAP GTPase-activating activity inhibitors, confirmation, biochemical, ADP Hunter fluorescence, primary and confirmatory (AID 624330). The format is functional.

Series [9] addresses T3, Cytochrome P450 3A4.

Chain of Cytochrome P450 2C9 (P11712 whole entry): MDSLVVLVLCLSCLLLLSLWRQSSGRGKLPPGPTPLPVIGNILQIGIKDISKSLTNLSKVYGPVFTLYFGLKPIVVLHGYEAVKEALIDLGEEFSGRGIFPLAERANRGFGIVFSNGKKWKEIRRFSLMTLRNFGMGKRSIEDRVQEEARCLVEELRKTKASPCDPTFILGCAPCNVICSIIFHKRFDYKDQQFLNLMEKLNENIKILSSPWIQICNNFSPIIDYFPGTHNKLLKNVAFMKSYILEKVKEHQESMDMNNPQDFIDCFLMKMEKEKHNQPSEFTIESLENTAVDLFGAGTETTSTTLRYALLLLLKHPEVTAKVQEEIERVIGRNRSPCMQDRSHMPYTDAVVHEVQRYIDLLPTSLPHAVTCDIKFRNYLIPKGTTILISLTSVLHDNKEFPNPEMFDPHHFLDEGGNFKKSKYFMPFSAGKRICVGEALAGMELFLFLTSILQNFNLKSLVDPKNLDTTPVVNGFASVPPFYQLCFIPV

Regarding `Cn1c(-c2ccc(-c3ccccc3)cc2)cnc1S`, the results for the EC50 (in [1]; in [2]; in the series on H4) were 7.75 µM (active), 7.14 µM (active) and 15.6 µM (active), respectively. Take `C[C@@H]1CN([C@H](C)CO)C(=O)Cc2cc(NC(=O)Nc3cccc4ccccc34)ccc2O[C@H]1CN(C)Cc1ccccc1`: in series [3], the AC50 is 6.25 µM (active). Regarding `COc1cc(C(=O)OCC(=O)Nc2cc(C)on2)ccc1OCc1ccccc1Cl`, the concentration for a half-maximal effect (EC50) was 4.54 µM (active) in [1], 7.95 µM (active) in series [2] and 20.6 µM (active) in the series with H4. `C[C@@H]1CN([C@@H](C)CO)C(=O)c2cccc(NC(=O)CCCCCC(=O)Nc3ccccc3N)c2O[C@H]1CN(C)CC1CC1`: the AC50 in series [3] is 4.62 µM (active). Turning to `C[C@@H]1CN([C@H](C)CO)C(=O)Cc2cc(NS(=O)(=O)c3ccc(F)cc3)ccc2O[C@H]1CN(C)Cc1ccc(Cl)c(Cl)c1`, the AC50 in series [3] was 2.26 µM (active).

For the compound `C[C@@H]1CCCCO[C@@H](CN(C)C(=O)c2ccccc2)[C@@H](C)CN([C@H](C)CO)C(=O)c2cc(NC(=O)Nc3ccc(C(F)(F)F)cc3)ccc2O1`, in [3], the AC50 was 6.48 µM (active).

Turning to `CCN1C(=O)C(O)(C2COC(C)(C)CC2=O)c2ccccc21` (stereo not drawn), the AC50 result on Cytochrome P450 2C9 is “inconclusive”; on Cytochrome P450 2C19 it was 25.1 µM (inconclusive). Regarding `O=C(NCC1CCCO1)c1cc(-c2ccccc2)on1` (stereo not drawn), the EC50 was > 350 µM (not active) in “cells [4]”; 35.5 µM (active) in series [1]; 11.6 µM (active) in series [2]; 17.2 µM (active) in “cells [5]”; > 120 µM (not active) in the series with H4. For the compound `C[C@@H]1CCCCO[C@@H](CN(C)C(=O)Nc2ccc(C(F)(F)F)cc2)[C@@H](C)CN([C@H](C)CO)C(=O)c2cc(NC(=O)Nc3ccc4c(c3)OCO4)ccc2O1`, the AC50 in [3] was 4.09 µM (active). Take `COc1ccc(/C=C(/C#N)C(=O)Nc2ccc(O)cc2)cc1C(=O)O`: the IC50 at Large T antigen is 36.9 µM (active). In addition, the EC50 on Protein RecA is 8.43 µM (active). In addition, the AC50 in [6] was 32.1 µM (active).

For `COC1C=CO[C@@]2(C)Oc3c(C)c(O)c4c(O)c(c5c(nc6cc(C)ccn65)c4c3C2=O)NC(=O)/C(C)=C\C=CC(C)C(O)[C@@H](C)C(O)C(C)[C@@H](OC(C)=O)C1C` (stereo partly drawn), at Cytochrome P450 3A4 [7], the AC50 was 7.94 µM (inconclusive).

With `COC(=O)c1c(C)[nH]c(C(=O)OCc2ccc(F)cc2)c1C`, the EC50 was 23.8 µM (active) in series [1], 0.115 µM (active) in series [2] and 9.55 µM (active) in the series on H4. Consider `Oc1cc(-c2ccc(Br)cc2)[nH]n1`, for which, on Large T antigen, the IC50 is 53.9 µM (active). Besides, the EC50 on Protein RecA was 0.718 µM (active). Moreover, in [6], the AC50 was 3.06 µM (active). For the compound `CC[C@H](CO)NCCN[C@@H](CC)CO`, on Cytochrome P450 2C9, the AC50 entry was “inconclusive”. For the compound `N#Cc1nn(-c2c(Cl)cc(C(F)(F)F)cc2Cl)c(N)c1[S+]([O-])C(F)(F)F` (stereo not drawn) [FIPRONIL], the AC50 on Cytochrome P450 3A4 [7] was 25.1 µM (inconclusive). `CCN(CC)CCCC(C)n1c(-c2ccccc2)nc2c(N3CCOCC3)nc(C)nc21` (stereo not drawn): the AC50 at Cytochrome P450 3A4 [7] is 15.8 µM (inconclusive). As to `CCOC(=O)N1CCN(C(=O)CNCc2cccs2)CC1.O=C(O)C(=O)O`, the AC50 result at Cytochrome P450 2C9 is reported as “inconclusive”. `CN1C(=O)/C(=C(/C#N)c2nc3ccccc3[nH]2)c2ccccc21`: the values for the concentration at half-maximal activity (AC50) result at Cytochrome P450 2C9 and on Cytochrome P450 2C19 were “inconclusive” and 11.2 µM (inconclusive), respectively. As for `C[C@@H]1CN([C@H](C)CO)C(=O)Cc2cc(NC(=O)CCC(F)(F)F)ccc2O[C@@H]1CN(C)Cc1ccc(Oc2ccccc2)cc1`, the AC50 in series [3] is 2.81 µM (active).

Regarding `S=c1ccss1` [DITHIOLETHIONE], at Cytochrome P450 3A4 [7], the AC50 was 10 µM (inconclusive).

Consider `COC(=O)c1cccc(C23CC4(C2)[C@H](CN(Cc2ccc(C(F)(F)F)cc2)[C@@H]4c2ccccc2)C3c2ccc(Cl)nc2)c1` (stereo partly drawn), for which, on Cytochrome P450 3A4 [7], the AC50 is 3.98 µM (inconclusive). Turning to `C#CCCCCCCCCCCCC(O)CC(O)COC(C)=O` (stereo not drawn) [AVOCADYNE ACETATE], the AC50 at Cytochrome P450 3A4 [7] was 39.8 µM (inconclusive). For `COc1cccc(C(=O)Nc2ccc(N3CCN(C(=O)c4ccco4)CC3)cc2)c1`, the concentration giving a half-maximal response (EC50) was 8.46 µM (active) in series [1], > 120 µM (not active) in series [2] and > 120 µM (not active) with H4. Consider `CCOc1c2ccc(C(=O)NC3CCCc4ccccc43)cc2nn1C` (stereo not drawn), for which, at Cytochrome P450 2C9, the AC50 entry is listed as “inconclusive”. Regarding `O=C(/C=C\c1ccc(O)c(O)c1)O[C@@H]1C[C@](O)(C(=O)O)C[C@@H](O)[C@@H]1O`, at Cytochrome P450 2C9, the half-maximal activity concentration (AC50) entry is recorded as “inconclusive”. As to `CN(C)c1ccc(NC(S)=NCC2CCCO2)cc1` (stereo not drawn), the IC50 was 14.3 µM (active) on Large T antigen and 85.6 µM (active) in series [8]. Regarding `Cc1ccc(C(=O)c2cn(-c3ccc(F)c(Cl)c3)nn2)cc1`, at Cytochrome P450 2C9, the AC50 result is listed as “inconclusive”.

For the compound `Cc1c(Cl)cccc1NC(=O)C[C@H]1Sc2ccccc2NC1=O`, the results for the AC50 result at Cytochrome P450 2C9, on Cytochrome P450 3A4 [9] and at Cytochrome P450 2C19 were “inconclusive”, 3.98 µM (inconclusive) and 3.16 µM (inconclusive), respectively. With `O=C(Nc1ccccc1)O[C@@H]1C[C@H]2CCC(=O)N3CC[C@@H](C1)[C@@H]23`, the EC50 in series [1] was 40.9 µM (active); in series [2], 0.39 µM (active); with H4 it was 53.9 µM (active). As for `C[C@@H]1CCCCO[C@@H](CN(C)Cc2ccc(C(F)(F)F)cc2)[C@@H](C)CN([C@H](C)CO)C(=O)c2cc(NC(=O)Nc3ccccc3)ccc2O1`, the AC50 in [3] is 5.35 µM (active).
